Source: patent US20110190309A1, “PHARMACEUTICAL PRODUCT COMPRISING A […] RECEPTOR ANTAGONIST AND A Beta2-ADRENOCEPTOR AGONIST” (priority 2008, published 2011)
Structures can show the parent of a compound that is named as a salt.

How the values were obtained:
[1] = target: T1, β2 (Homo sapiens, UniProt P07550); assay: Adrenergic β2 mediated cAMP production in H292 cells (AlphaScreen); format: cell-based; settings: Intrinsic Activity as a fraction relative to the maximum activity of formoterol
T1 construct: endogenous in cells; host or cells: H292 cells
T1 sequence (P07550 whole entry): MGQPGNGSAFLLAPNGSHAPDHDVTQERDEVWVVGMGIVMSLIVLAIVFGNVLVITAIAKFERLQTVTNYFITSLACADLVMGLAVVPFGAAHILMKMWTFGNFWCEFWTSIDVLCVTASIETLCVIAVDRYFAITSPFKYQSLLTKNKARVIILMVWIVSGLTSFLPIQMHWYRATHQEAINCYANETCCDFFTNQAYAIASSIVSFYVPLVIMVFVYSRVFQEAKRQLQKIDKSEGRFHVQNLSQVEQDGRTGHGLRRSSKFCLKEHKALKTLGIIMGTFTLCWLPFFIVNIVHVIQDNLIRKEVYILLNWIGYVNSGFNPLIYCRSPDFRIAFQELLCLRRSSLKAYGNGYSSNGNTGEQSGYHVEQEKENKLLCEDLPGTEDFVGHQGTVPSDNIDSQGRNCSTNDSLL
Description: H292 cells were grown in 225 cm2 flasks incubator at 37° C., 5% CO2 in RPMI medium containing, 10% (v/v) FBS (foetal bovine serum) and 2 mM L-glutamine.
Adherent H292 cells were removed from tissue culture flasks by treatment with Accutase™ cell detachment solution for 15 minutes. Flasks were incubated for 15 minutes in a humidified incubator at 37° C., 5% CO2. Detached cells were re-suspended in RPMI media (containing 10% (v/v) FBS and 2 mM L-glutamine) at 0.05×10^6 cells per mL. 5000 cells in 100 μL were added to each well of a tissue-culture-treated 96-well plate and the cells incubated overnight in a humidified incubator at 37° C., 5% CO2. The culture media was removed and cells were washed twice with 100 μL assay buffer and replaced with 50 μL assay buffer (HBSS solution containing 10 mM HEPES pH7.4 and 5 mM glucose). Cells were rested at room temperature for 20 minutes after which time 25 μL of rolipram (1.2 mM made up in assay buffer containing 2.4% (v/v) dimethylsulphoxide) was added. Cells were incubated with rolipram for 10 minutes after which time Compound A was added and the cells were incubated for 60 minutes at room temperature. The final rolipram concentration in the assay was 300 μM and final vehicle concentration was 1.6% (v/v) dimethylsulphoxide. The reaction was stopped by removing supernatants, washing once with 100 μL assay buffer and replacing with 50 μL lysis buffer. The cell monolayer was frozen at −80° C. for 30 minutes (or overnight).
The concentration of cAMP (cyclic adenosine monophosphate) in the cell lysate was determined using AlphaScreen™ methodology. […] The AlphaScreen™ signal was measured using an EnVision spectrophotometer (Perkin-Elmer Inc.) with the recommended manufacturer's settings. cAMP concentrations were determined by reference to a calibration curve determined in the same experiment using standard cAMP concentrations. […] Intrinsic Activity was expressed as a fraction relative to the maximum activity determined for formoterol in each experiment.

[2] = system: guinea pig trachea; assay: Bronchodilator activity in the guinea pig isolated tracheal ring preparation; settings: 10 nM; methacholine 1 μM; 60 min; mean±s.e.mean
Description: Guinea pigs (300-500 g) were killed by cervical dislocation and the trachea was isolated. The trachea was cut into segments 2-3 cartilage rings in width and suspended in 10 ml organ baths in modified Krebs' solution (mM; NaCl, 90; NaHCO3, 45; KCl, 5; MgSO4.7H2O, 0.5; Na2HPO4.2H2O, 1; CaCl2, 2.25; glucose, 10; pH 7.4 gassed with 5% CO2, 95% O2 at 37° C.). The tracheal rings were attached to an isometric force transducer for the measurement of isometric tension. The tissues were washed and a force of 1 g was applied to each tissue. The rings were contracted with methacholine (1 μM). Once the contraction had reached a plateau, vehicle (0.01% DMSO in distilled H2O), indacaterol (10 nM), N-[2-(Diethylamino)ethyl]-N-(2-{[2-(4-hydroxy-2-oxo-2,3-dihydro-1,3-benzothiazol-7-yl)ethyl]amino}ethyl)-3-[2-(1-naphthyl)ethoxy]propanamide dihydrobromide (10 nM), N-Cyclohexyl-N^3-[2-(3-fluorophenyl)ethyl]-N-(2-{[2-(4-hydroxy-2-oxo-2,3-dihydro-1,3-benzothiazol-7-yl)ethyl]amino}ethyl)-(3-alaninamide di-D-mandelate salt (1 nM), (R)-3-(1-Phenyl-cycloheptanecarbonyloxy)-1-(pyridin-2-ylcarbamoylmethyl)-1-azonia-bicyclo[2.2.2]octane bromide (1 nM), a combination of (R)-3-(1-Phenyl-cycloheptanecarbonyloxy)-1-(pyridin-2-ylcarbamoylmethyl)-1-azonia-bicyclo[2.2.2]octane bromide (1 nM) and indacaterol (10 nM), a combination of N-[2-(Diethylamino)ethyl]-N-(2-{[2-(4-hydroxy-2-oxo-2,3-dihydro-1,3-benzothiazol-7-yl)ethyl]amino}ethyl)-3-[2-(1-naphthyl)ethoxy]propanamide dihydrobromide (10 nM) and (R)-3-(1-Phenyl-cycloheptanecarbonyloxy)-1-(pyridin-2-ylcarbamoylmethyl)-1-azonia-bicyclo[2.2.2]octane bromide (1 nM) and, or a combination of N-Cyclohexyl-N^3-[2-(3-fluorophenyl)ethyl]-N-(2-{[2-(4-hydroxy-2-oxo-2,3-dihydro-1,3-benzothiazol-7-yl)ethyl]amino}ethyl)-β-alaninamide di-D-mandelate salt (1 nM) and (R)-3-(1-Phenyl-cycloheptanecarbonyloxy)-1-(pyridin-2-ylcarbamoylmethyl)-1-azonia-bicyclo[2.2.2]octane bromide (1 nM) was added and the tissue left for 60 min. The tension was measured in each ring at 60 min following compound addition and was expressed as a % relaxation of the constriction to methacholine (1 μM) (mean±s.e.mean). Data were collected using the Chart 4 software (ADInstruments, Charlgrove, UK).

Compound: CCN(CC)CCN(CCNCCc1ccc(O)c2[nH]c(=O)sc12)C(=O)CCOCCc1cccc2ccccc12 [BA1, N-[2-(Diethylamino)ethyl]-N-(2-{[2-(4-hydroxy-2-oxo-2,3-dihydro-1,3-benzothiazol-7-yl)ethyl]amino}ethyl)-3-[2-(1-naphthyl)ethoxy]propanamide dihydrobromide]
- β2 Int Act [1]: 0.8
- percentage relaxation of the constriction to methacholine [2]: 18±11.2%

Compound: O=c1[nH]c2c(O)ccc([C@@H](O)CNCCSCCCNCCc3ccccc3Cl)c2s1 [BA3, 7-[(1R)-2-({2-[(3-{[2-(2-Chlorophenyl)ethyl]amino}propyl)thio]ethyl}amino)-1-hydroxyethyl]-4-hydroxy-1,3-benzothiazol-2(3H)-one dihydrobromide]
- β2 Int Act [1]: 0.8
